#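 Where inhibition never reached the appropriate level, the endpoint shown equals the highest concentration tested. Otherwise, values were interpolated linearly from a five-concentration, 48-hour dose response in 96-well plates. GI50 marks 50% less growth. TGI marks complete inhibition of growth.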
# Columns and labels:
# Assay in all cases: DTP human tumour cell line panel, 48 h
# SW-620 colon = tested on: SW-620 colon
# OVCAR-4 ovarian = tested on: OVCAR-4 ovarian
# A498 renal = tested on: A498 renal
# OVCAR-8 ovarian = tested on: OVCAR-8 ovarian
# T-47D breast = tested on: T-47D breast
# SNB-19 CNS = tested on: SNB-19 CNS
# M14 melanoma = tested on: M14 melanoma
# NCI-H23 lung = tested on: NCI-H23 lung
# NCI-H460 lung = tested on: NCI-H460 lung
# SK-MEL-2 melanoma = tested on: SK-MEL-2 melanoma
# SF-295 CNS = tested on: SF-295 CNS
# SF-539 CNS = tested on: SF-539 CNS
# IGROV1 ovarian = tested on: IGROV1 ovarian
# HCT-15 colon = tested on: HCT-15 colon
# MDA-MB-231 breast = tested on: MDA-MB-231 breast
# CAKI-1 renal = tested on: CAKI-1 renal
# OVCAR-3 ovarian = tested on: OVCAR-3 ovarian
# NCI-H522 lung = tested on: NCI-H522 lung
# HCT-116 colon = tested on: HCT-116 colon
# SK-MEL-5 melanoma = tested on: SK-MEL-5 melanoma
# HOP-62 NSCLC = tested on: HOP-62 NSCLC
# TK-10 renal = tested on: TK-10 renal
# SK-MEL-28 melanoma = tested on: SK-MEL-28 melanoma
# MCF7 breast = tested on: MCF7 breast
# SR leukemia = tested on: SR leukemia
# HS 578T breast = tested on: HS 578T breast
# BT-549 breast = tested on: BT-549 breast
# HL-60(TB) leukemia = tested on: HL-60(TB) leukemia
# LOX IMVI melanoma = tested on: LOX IMVI melanoma
# MOLT-4 leukemia = tested on: MOLT-4 leukemia
# SF-268 CNS = tested on: SF-268 CNS
# CCRF-CEM leukemia = tested on: CCRF-CEM leukemia
# 786-0 renal = tested on: 786-0 renal
# SNB-75 CNS = tested on: SNB-75 CNS
# U251 CNS = tested on: U251 CNS
# HCC-2998 colon = tested on: HCC-2998 colon
# RPMI-8226 leukemia = tested on: RPMI-8226 leukemia
# PC-3 prostate = tested on: PC-3 prostate
# UACC-62 melanoma = tested on: UACC-62 melanoma
# UO-31 renal = tested on: UO-31 renal
# HT29 colon = tested on: HT29 colon
# RXF 393 renal = tested on: RXF 393 renal
# SN12C renal = tested on: SN12C renal
# HOP-92 NSCLC = tested on: HOP-92 NSCLC
# UACC-257 melanoma = tested on: UACC-257 melanoma
# MDA-MB-435 = tested on: MDA-MB-435
# K-562 leukemia = tested on: K-562 leukemia
# ACHN renal = tested on: ACHN renal
# MALME-3M melanoma = tested on: MALME-3M melanoma
# KM12 colon = tested on: KM12 colon
# DU-145 prostate = tested on: DU-145 prostate
# NCI-H226 lung = tested on: NCI-H226 lung
# SK-OV-3 ovarian = tested on: SK-OV-3 ovarian
# OVCAR-5 ovarian = tested on: OVCAR-5 ovarian
# COLO 205 colon = tested on: COLO 205 colon
# A549 NSCLC = tested on: A549 NSCLC
# NCI/ADR-RES ovarian = tested on: NCI/ADR-RES ovarian
compound,measurement,setting,value
CNc1ncc2cc(Oc3ccc(F)cc3F)c(=O)n(C)c2n1,GI50,SW-620 colon,> 25 µM
same,TGI,SW-620 colon,> 25 µM
same,GI50,OVCAR-4 ovarian,> 25 µM
same,TGI,OVCAR-4 ovarian,> 25 µM
same,GI50,A498 renal,11.9 µM
same,TGI,A498 renal,> 25 µM
same,GI50,OVCAR-8 ovarian,> 25 µM
same,TGI,OVCAR-8 ovarian,> 25 µM
same,GI50,T-47D breast,> 25 µM
same,TGI,T-47D breast,> 25 µM
same,GI50,SNB-19 CNS,> 25 µM
same,TGI,SNB-19 CNS,> 25 µM
same,GI50,M14 melanoma,> 25 µM
same,TGI,M14 melanoma,> 25 µM
same,GI50,NCI-H23 lung,> 25 µM
same,TGI,NCI-H23 lung,> 25 µM
same,GI50,NCI-H460 lung,> 25 µM
same,TGI,NCI-H460 lung,> 25 µM
same,GI50,SK-MEL-2 melanoma,> 25 µM
same,TGI,SK-MEL-2 melanoma,> 25 µM
same,GI50,SF-295 CNS,> 25 µM
same,TGI,SF-295 CNS,> 25 µM
same,GI50,SF-539 CNS,> 25 µM
same,TGI,SF-539 CNS,> 25 µM
same,GI50,IGROV1 ovarian,> 25 µM
same,TGI,IGROV1 ovarian,> 25 µM
same,GI50,HCT-15 colon,> 25 µM
same,TGI,HCT-15 colon,> 25 µM
same,GI50,MDA-MB-231 breast,> 24.1 µM
same,TGI,MDA-MB-231 breast,> 25 µM
same,GI50,CAKI-1 renal,> 25 µM
same,TGI,CAKI-1 renal,> 25 µM
same,GI50,OVCAR-3 ovarian,> 25 µM
same,TGI,OVCAR-3 ovarian,> 25 µM
same,GI50,NCI-H522 lung,> 25 µM
same,TGI,NCI-H522 lung,> 25 µM
same,GI50,HCT-116 colon,> 25 µM
same,TGI,HCT-116 colon,> 25 µM
same,GI50,SK-MEL-5 melanoma,> 25 µM
same,TGI,SK-MEL-5 melanoma,> 25 µM
same,GI50,HOP-62 NSCLC,> 25 µM
same,TGI,HOP-62 NSCLC,> 25 µM
same,GI50,TK-10 renal,> 23.1 µM
same,TGI,TK-10 renal,> 25 µM
same,GI50,SK-MEL-28 melanoma,> 25 µM
same,TGI,SK-MEL-28 melanoma,> 25 µM
same,GI50,MCF7 breast,> 25 µM
same,TGI,MCF7 breast,> 25 µM
same,GI50,SR leukemia,> 25 µM
same,TGI,SR leukemia,> 25 µM
same,GI50,HS 578T breast,> 25 µM
same,TGI,HS 578T breast,> 25 µM
same,GI50,BT-549 breast,> 25 µM
same,TGI,BT-549 breast,> 25 µM
same,GI50,HL-60(TB) leukemia,> 25 µM
same,TGI,HL-60(TB) leukemia,> 25 µM
same,GI50,LOX IMVI melanoma,> 25 µM
same,TGI,LOX IMVI melanoma,> 25 µM
same,GI50,MOLT-4 leukemia,> 25 µM
same,TGI,MOLT-4 leukemia,> 25 µM
same,GI50,SF-268 CNS,> 25 µM
same,TGI,SF-268 CNS,> 25 µM
same,GI50,CCRF-CEM leukemia,> 25 µM
same,TGI,CCRF-CEM leukemia,> 25 µM
same,GI50,786-0 renal,> 25 µM
same,TGI,786-0 renal,> 25 µM
same,GI50,SNB-75 CNS,9.33 µM
same,TGI,SNB-75 CNS,> 25 µM
same,GI50,U251 CNS,> 25 µM
same,TGI,U251 CNS,> 25 µM
same,GI50,HCC-2998 colon,> 25 µM
same,TGI,HCC-2998 colon,> 25 µM
same,GI50,RPMI-8226 leukemia,> 25 µM
same,TGI,RPMI-8226 leukemia,> 25 µM
same,GI50,PC-3 prostate,> 25 µM
same,TGI,PC-3 prostate,> 25 µM
same,GI50,UACC-62 melanoma,> 25 µM
same,TGI,UACC-62 melanoma,> 25 µM
same,GI50,UO-31 renal,> 25 µM
same,TGI,UO-31 renal,> 25 µM
same,GI50,HT29 colon,> 25 µM
same,TGI,HT29 colon,> 25 µM
same,GI50,RXF 393 renal,> 19.3 µM
same,TGI,RXF 393 renal,> 25 µM
same,GI50,SN12C renal,> 25 µM
same,TGI,SN12C renal,> 25 µM
same,GI50,HOP-92 NSCLC,3.82 µM
same,TGI,HOP-92 NSCLC,> 25 µM
same,GI50,UACC-257 melanoma,> 25 µM
same,TGI,UACC-257 melanoma,> 25 µM
same,GI50,MDA-MB-435,> 25 µM
same,TGI,MDA-MB-435,> 25 µM
same,GI50,K-562 leukemia,> 25 µM
same,TGI,K-562 leukemia,> 25 µM
same,GI50,ACHN renal,> 25 µM
same,TGI,ACHN renal,> 25 µM
same,GI50,MALME-3M melanoma,> 25 µM
same,TGI,MALME-3M melanoma,> 25 µM
same,GI50,KM12 colon,> 25 µM
same,TGI,KM12 colon,> 25 µM
same,GI50,DU-145 prostate,> 25 µM
same,TGI,DU-145 prostate,> 25 µM
same,GI50,NCI-H226 lung,> 25 µM
same,TGI,NCI-H226 lung,> 25 µM
same,GI50,SK-OV-3 ovarian,> 25 µM
same,TGI,SK-OV-3 ovarian,> 25 µM
same,GI50,OVCAR-5 ovarian,> 25 µM
same,TGI,OVCAR-5 ovarian,> 25 µM
same,GI50,COLO 205 colon,> 25 µM
same,TGI,COLO 205 colon,> 25 µM
same,GI50,A549 NSCLC,> 25 µM
same,TGI,A549 NSCLC,> 25 µM
same,GI50,NCI/ADR-RES ovarian,> 25 µM
same,TGI,NCI/ADR-RES ovarian,> 25 µM

# From PubChem BioAssay (NCI)
